According to article PMC6979384, “Characterization of the plant homeodomain (PHD) reader family for their histone tail interactions” (Epigenetics & Chromatin, 2020):
Where no end group is shown, it is not given here.

Tests used:
Test in all cases: Histone peptide microarray
Assay type in all cases: binding, human
KDM5A (1) = details: KDM5A (1), GST-tagged; arrays performed twice, n of 4
How it was run: (§1)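 A peptide microarray holding 293 synthetic histone peptides with individual or combinatorial modifications was probed with each GST-PHD protein at 0.5 μM. Values represent mean intensity (±SD) from four replicates.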

CHD5 (PPCC) = details: CHD5 (PPCC), GST-tagged; arrays performed twice, n of 4
How it was run: as §1

KDM5B (3) = details: KDM5B (3), GST-tagged; arrays performed twice, n of 4
How it was run: as §1

ING5 = details: ING5, GST-tagged; arrays performed twice, n of 4
How it was run: as §1

TAF3 = details: TAF3, GST-tagged; arrays performed twice, n of 4
How it was run: as §1

BAZ2B = details: BAZ2B, GST-tagged; arrays performed twice, n of 4
How it was run: as §1

SP140L = details: SP140L, GST-tagged; arrays performed twice, n of 4
How it was run: as §1

KDM5A (3) = details: KDM5A (3), GST-tagged; arrays performed twice, n of 4
How it was run: as §1

MLL5 = details: MLL5, GST-tagged; arrays performed twice, n of 4
How it was run: as §1

PHF8 = details: PHF8, GST-tagged; arrays performed twice, n of 4
How it was run: as §1

KDM5B (1) = details: KDM5B (1), GST-tagged; arrays performed twice, n of 4
How it was run: as §1

TRIM66 (PB) = details: TRIM66 (PB), GST-tagged; arrays performed twice, n of 4
How it was run: as §1

RAG2 = details: RAG2, GST-tagged; arrays performed twice, n of 4
How it was run: as §1

ING2 = details: ING2, GST-tagged; arrays performed twice, n of 4
How it was run: as §1

PHF23 = details: PHF23, GST-tagged; arrays performed twice, n of 4
How it was run: as §1

CHD5 (PCC) = details: CHD5 (PCC), GST-tagged; arrays performed twice, n of 4
How it was run: as §1

PHRF1 (RP) = details: PHRF1 (RP), GST-tagged; arrays performed twice, n of 4
How it was run: as §1

MORC3 (CW) = details: MORC3 (CW), GST-tagged; arrays performed twice, n of 4
How it was run: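 Steps: express and purify GST-tagged PHD reader; incubate 0.5 μM protein on a peptide microarray (293 histone peptides, single or combined PTMs) following an optimized protocol; average signal across 4 replicates.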

PHF21A = details: PHF21A, GST-tagged; arrays performed twice, n of 4
How it was run: as §1

DPF2 (PPC2W2) = details: DPF2 (PPC2W2), GST-tagged; arrays performed twice, n of 4
How it was run: as §1

DIDO1 = details: DIDO1, GST-tagged; arrays performed twice, n of 4
How it was run: as §1

PHF2 = details: PHF2, GST-tagged; arrays performed twice, n of 4
How it was run: as §1

PHF13 = details: PHF13, GST-tagged; arrays performed twice, n of 4
How it was run: as §1

AIRE (PP) = details: AIRE (PP), GST-tagged; arrays performed twice, n of 4
How it was run: as §1

CHD4 (PPCC) = details: CHD4 (PPCC), GST-tagged; arrays performed twice, n of 4
How it was run: as §1

ING1 = details: ING1, GST-tagged; arrays performed twice, n of 4
How it was run: as §1

KDM7A = details: KDM7A, GST-tagged; arrays performed twice, n of 4
How it was run: as §1

BPTF (PB) = details: BPTF (PB), GST-tagged; arrays performed twice, n of 4
How it was run: as §1

KDM4C (TTP) = details: KDM4C (TTP), GST-tagged; arrays performed twice, n of 4
How it was run: as §1

ING3 = details: ING3, GST-tagged; arrays performed twice, n of 4
How it was run: as §1

ING4 = details: ING4, GST-tagged; arrays performed twice, n of 4
How it was run: as §1

| Substance | Array Heatmap value (peptide array binding signal) (KDM5A (1)) | Array Heatmap value (peptide array binding signal) (CHD5 (PPCC)) | Array Heatmap value (peptide array binding signal) (KDM5B (3)) | Array Heatmap value (peptide array binding signal) (ING5) | Array Heatmap value (peptide array binding signal) (TAF3) | Array Heatmap value (peptide array binding signal) (BAZ2B) | Array Heatmap value (peptide array binding signal) (SP140L) | Array Heatmap value (peptide array binding signal) (KDM5A (3)) | Array Heatmap value (peptide array binding signal) (MLL5) | Array Heatmap value (peptide array binding signal) (PHF8) | Array Heatmap value (peptide array binding signal) (KDM5B (1)) | Array Heatmap value (peptide array binding signal) (TRIM66 (PB)) | Array Heatmap value (peptide array binding signal) (RAG2) | Array Heatmap value (peptide array binding signal) (ING2) | Array Heatmap value (peptide array binding signal) (PHF23) | Array Heatmap value (peptide array binding signal) (CHD5 (PCC)) | Array Heatmap value (peptide array binding signal) (PHRF1 (RP)) | Array Heatmap value (peptide array binding signal) (MORC3 (CW)) | Array Heatmap value (peptide array binding signal) (PHF21A) | Array Heatmap value (peptide array binding signal) (DPF2 (PPC2W2)) | other results |
| --- | --- | --- | --- | --- | --- | --- | --- | --- | --- | --- | --- | --- | --- | --- | --- | --- | --- | --- | --- | --- | --- |
| H4K12ac + K20ac: H4 1-23 | 0.5024 | 0.5873 | 0.5497 | 0.3842 | 0.2733 | 0.5161 | 0.3715 | 0.3797 | 0.5351 | 0.3219 | 0.6403 | 0.5961 | 0.2498 | 0.5908 | 0.5334 | 0.8332 | 0.4 | 0.3391 | 0.5207 | 0.6377 | Array Heatmap value (peptide array binding signal) (DIDO1): 0.604; Array Heatmap value (peptide array binding signal) (PHF2): 0.4316; Array Heatmap value (peptide array binding signal) (PHF13): 0.6532; Array Heatmap value (peptide array binding signal) (AIRE (PP)): 0.5505; Array Heatmap value (peptide array binding signal) (CHD4 (PPCC)): 0.6135; Array Heatmap value (peptide array binding signal) (ING1): 0.4954; Array Heatmap value (peptide array binding signal) (KDM7A): 0.4248; Array Heatmap value (peptide array binding signal) (BPTF (PB)): 0.3685; Array Heatmap value (peptide array binding signal) (KDM4C (TTP)): 0.5414; Array Heatmap value (peptide array binding signal) (ING3): 0.496; Array Heatmap value (peptide array binding signal) (ING4): 0.4824 |
| H4K12ac + KQ5,8,16,20: H4 1-23 (SGRGQGGQGLGK(Ac)GGAQRHRQVLR; UniProt P62805 2-24, looked up, variant K5Q K8Q K16Q K20Q) | 0.4416 | 0.5319 | 0.4684 | 0.347 | 0.2598 | 0.4631 | 0.3381 | 0.4384 | 0.5826 | 0.3437 | 0.6598 | 0.6047 | 0.2487 | 0.6036 | 0.5714 | 0.8241 | 0.4941 | 0.3596 | 0.4355 | 0.6849 | Array Heatmap value (peptide array binding signal) (DIDO1): 0.7417; Array Heatmap value (peptide array binding signal) (PHF2): 0.578; Array Heatmap value (peptide array binding signal) (PHF13): 0.611; Array Heatmap value (peptide array binding signal) (AIRE (PP)): 0.4232; Array Heatmap value (peptide array binding signal) (CHD4 (PPCC)): 0.5868; Array Heatmap value (peptide array binding signal) (ING1): 0.553; Array Heatmap value (peptide array binding signal) (KDM7A): 0.3252; Array Heatmap value (peptide array binding signal) (BPTF (PB)): 0.3429; Array Heatmap value (peptide array binding signal) (KDM4C (TTP)): 0.445; Array Heatmap value (peptide array binding signal) (ING3): 0.4727; Array Heatmap value (peptide array binding signal) (ING4): 0.4387 |
| H4K12me1: H4 1-23 [Peptide H4K12me1] | 0.4194 | 0.4573 | 0.384 | 0.2899 | 0.2302 | 0.3991 | 0.3238 | 0.3966 | 0.4865 | 0.3037 | 0.6336 | 0.515 | 0.2114 | 0.5919 | 0.4708 | 0.7543 | 0.3919 | 0.309 | 0.4184 | 0.6545 | Array Heatmap value (peptide array binding signal) (DIDO1): 0.5928; Array Heatmap value (peptide array binding signal) (PHF2): 0.4095; Array Heatmap value (peptide array binding signal) (PHF13): 0.5207; Array Heatmap value (peptide array binding signal) (AIRE (PP)): 0.4018; Array Heatmap value (peptide array binding signal) (CHD4 (PPCC)): 0.5189; Array Heatmap value (peptide array binding signal) (ING1): 0.4711; Array Heatmap value (peptide array binding signal) (KDM7A): 0.3046; Array Heatmap value (peptide array binding signal) (BPTF (PB)): 0.2963; Array Heatmap value (peptide array binding signal) (KDM4C (TTP)): 0.4116; Array Heatmap value (peptide array binding signal) (ING3): 0.3932; Array Heatmap value (peptide array binding signal) (ING4): 0.3881 |
| H4K20ac: H4 1-23 [Peptide H4K20ac] | 0.4202 | 0.4774 | 0.5071 | 0.3047 | 0.2578 | 0.4009 | 0.3288 | 0.374 | 0.5228 | 0.3218 | 0.6134 | 0.5321 | 0.2177 | 0.5829 | 0.4966 | 0.7369 | 0.3806 | 0.3311 | 0.3977 | 0.5691 | Array Heatmap value (peptide array binding signal) (DIDO1): 0.5747; Array Heatmap value (peptide array binding signal) (PHF2): 0.4522; Array Heatmap value (peptide array binding signal) (PHF13): 0.5544; Array Heatmap value (peptide array binding signal) (AIRE (PP)): 0.423; Array Heatmap value (peptide array binding signal) (CHD4 (PPCC)): 0.5173; Array Heatmap value (peptide array binding signal) (ING1): 0.4651; Array Heatmap value (peptide array binding signal) (KDM7A): 0.3276; Array Heatmap value (peptide array binding signal) (BPTF (PB)): 0.3137; Array Heatmap value (peptide array binding signal) (KDM4C (TTP)): 0.4301; Array Heatmap value (peptide array binding signal) (ING3): 0.4032; Array Heatmap value (peptide array binding signal) (ING4): 0.4009 |
